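The compound was tested at five concentrations on cells cultured in 96-well plates, with a 48-hour exposure period. Here, GI50 denotes the concentration required for 50% inhibition of growth. TGI: total growth inhibition.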

Holding throughout (assay): inhibition of tumour cell growth, NCI panel, 48 h
In experiment [1] the test system is COLO 205 colon.
The subject of experiment [2] is EKVX NSCLC.
For experiment [3], the system named is HT29 colon.
For experiment [4], the system named is K-562 leukemia.
The test system of experiment [5] is M14 melanoma.
Experiment [6] concerns MALME-3M melanoma.
In experiment [7] the test system is MDA-MB-231 breast.
In experiment [8] the test system is NCI-H460 lung.
Experiment [9] has as its system NCI/ADR-RES ovarian.
Experiment [10] deals with OVCAR-8 ovarian.
For experiment [11], the system named is SK-MEL-28 melanoma.
Experiment [12] has as its system SW-620 colon.

Turning to `NS(=O)(=O)c1ccc(/C=C/c2ccc(O)cc2)cc1`, the TGI in experiment [1] is 35.3 µM; in experiment [2], 69.8 µM; in experiment [3], 35.1 µM; in experiment [4], over 100 µM; in experiment [5], over 100 µM; in [6], 78.1 µM. For the same compound, the TGI in experiment [7] was 60.7 µM; in experiment [8] it was over 100 µM; in experiment [9], over 100 µM; in experiment [10], 31.9 µM; in experiment [11] it was 78.2 µM; in experiment [12] it was over 100 µM. The GI50 in experiment [3] was 17.8 µM; in [4], 24.9 µM; in experiment [10], 4.81 µM.

On to `Cc1cccc(N/C(Sc2ccccc2)=C(/C(Cl)=C(Cl)Cl)[N+](=O)[O-])c1`, for which the TGI is 29 µM in experiment [1]; 42.7 µM in [2]; 43.1 µM in experiment [3]; 57.8 µM in [4]; 36.7 µM in experiment [5]; 30.2 µM in experiment [6]. Moreover, the TGI in experiment [7] is 53.9 µM; in experiment [8], over 100 µM; in experiment [9] it was 39.1 µM; in experiment [10] it was 29.6 µM; in [11] it was 32.4 µM; in experiment [12] it was 31.1 µM.

Take `COC(=O)/C=C1/OC(c2ccc(OC)cc2)=C(Cl)C1=O`: the TGI was 23.7 µM in experiment [1]; 39.4 µM in experiment [2]; 36.5 µM in experiment [3]; 11.3 µM in [4]; 35.4 µM in experiment [5]; 30.7 µM in experiment [6]. In addition, the TGI in experiment [7] was 26.2 µM; in experiment [8], 42.9 µM; in experiment [9], 66.5 µM; in experiment [10], 28.2 µM; in [11], 32.6 µM; in experiment [12], 28.1 µM.

Turning to `CC(=O)N(C(C)=O)c1cc2c3c(c1)CCCN3CCC2`, the TGI in [1], in experiment [2], in [3], in experiment [4], in experiment [5] and in experiment [6] was over 10 µM each time. The TGI in experiment [7], in experiment [8], in [9], in [10], in experiment [11] and in [12] was over 10 µM each time.

As to `CNc1nc(C(N)=O)c(N)s1`, the TGI in [1], in experiment [2], in experiment [3], in experiment [4], in experiment [5] and in experiment [6] was over 100 µM each time. Also, the TGI in [7], in [8], in experiment [9], in [10], in [11] and in experiment [12] was over 100 µM throughout.

Take `c1ccc(CSC2(SCc3ccccc3)CCCCC2)cc1`: the TGI in experiment [1], in experiment [2], in [3], in experiment [4], in experiment [5] and in experiment [6] was over 10 µM in each case. In addition, the TGI in experiment [7], in [8], in [9], in [10], in experiment [11] and in experiment [12] was over 10 µM throughout.

Take `CSc1nc2c(c(=O)[nH]1)N=C(c1ccccc1)CC(c1ccccc1)N2` (configuration not stated): the TGI in experiment [1] was over 100 µM; in [2], over 100 µM; in [3], over 100 µM; in experiment [4] it was 68.4 µM; in experiment [5], over 100 µM; in experiment [6], 75.6 µM. In addition, the TGI in [7] is 45.5 µM; in [8], 27.2 µM; in experiment [9], over 100 µM; in experiment [10], over 100 µM; in experiment [11], over 100 µM; in experiment [12], over 100 µM.

`O=C(N/N=C(/COc1ccccc1)N=Cc1cccnc1)c1ccncc1`: the TGI in experiment [1], in [2], in [3], in experiment [4], in experiment [5] and in [6] was over 100 µM in each case. Besides, the TGI in [7], in experiment [8], in [9], in experiment [10], in experiment [11] and in [12] was over 100 µM in each case.

As for `CCOC(=O)c1nnc2c(C#N)c(-c3ccccc3)c(C)n2c1N`, the TGI in experiment [1] was over 100 µM; in [2], over 100 µM; in experiment [3] it was over 100 µM; in [4], over 100 µM; in [5] it was over 100 µM; in [6], 65.2 µM. The TGI in experiment [7] is over 100 µM; in experiment [8], over 100 µM; in [9], over 100 µM; in experiment [10], 98.3 µM; in experiment [11], 73.2 µM; in experiment [12], over 100 µM.

Consider `CC(=O)OC(Cc1c(O)c2c(C)cccc2oc1=O)C(C)(C)O` (configuration not stated), for which the TGI in experiment [1], in experiment [2], in [3], in experiment [4], in [5] and in [6] was over 100 µM in each case. Moreover, the TGI in experiment [7], in experiment [8], in experiment [9], in [10], in [11] and in experiment [12] was over 100 µM in each case.

With `CC1=C(C)SC(=C2Sc3nc(O)[nH]c(=O)c3S2)S1`, the TGI in [1] is over 100 µM; in experiment [2], over 100 µM; in experiment [3] it was over 100 µM; in experiment [4], over 100 µM; in [5], 94.1 µM; in experiment [6] it was 50.8 µM. Moreover, the TGI in [7], in experiment [8], in experiment [9], in [10], in experiment [11] and in experiment [12] was over 100 µM each time.

For the compound `CC(=O)OC(C)(C)CCC(=O)[C@](C)(O)[C@H]1[C@H](O)C[C@@]2(C)[C@@H]3CCc4c(cc(OC5OC(CO)C(O)C(O)C5O)c(O)c4C)C3(C)C(=O)C[C@]12C` (some centres not stated), the TGI in experiment [1], in experiment [2], in experiment [3], in experiment [4], in [5] and in [6] was over 100 µM in each case. Further, the TGI in experiment [7], in [8], in [9], in experiment [10], in [11] and in [12] was over 100 µM in each case.

With `CCOC(=O)/C=C(/C)Nc1nc2c(c(C(=O)OC)c1C#N)CCCC2`, the TGI in experiment [1], in [2], in experiment [3], in experiment [4], in [5] and in [6] was over 100 µM each time. Moreover, the TGI in [7], in experiment [8], in [9], in experiment [10], in experiment [11] and in experiment [12] was over 100 µM throughout.

Regarding `N#Cc1c(O)c(/C=N/c2ncccn2)c(=O)n2c1[nH]c1ccccc12`, the TGI in experiment [1], in experiment [2], in experiment [3], in [4], in [5] and in [6] was over 100 µM in each case. For the same compound, the TGI in experiment [7], in experiment [8], in experiment [9], in experiment [10], in [11] and in experiment [12] was over 100 µM each time.

Consider `Fc1ccc(C(OCCN2CC3CCC(C2)N3CCCc2ccccc2)c2ccc(F)cc2)cc1`, for which the TGI in experiment [1] was 2.74 µM; in experiment [2], 16.4 µM; in experiment [3], 13.7 µM; in experiment [4] it was 4.99 µM; in experiment [5], 6.26 µM; in experiment [6], 11.2 µM. Moreover, the TGI is 10.2 µM in [7]; 9.75 µM in experiment [8]; 15.2 µM in experiment [9]; 5.39 µM in [10]; 22.2 µM in experiment [11]; 17.3 µM in [12].

For the compound `COC(=O)CCC(NC(=O)OC(C)(C)C)C(=O)NC(Cc1ccc(NC(=O)CCCC(C)=O)cc1)C(=O)NC(CCC(=O)OC)C(=O)OC` (configuration not stated), the TGI in experiment [1], in [2], in experiment [3], in experiment [4], in experiment [5] and in experiment [6] was over 100 µM throughout. For the same compound, the TGI in experiment [7], in [8], in experiment [9], in experiment [10], in experiment [11] and in experiment [12] was over 100 µM in each case.

As to `CCN1CN(c2ccccc2)C2(CCN(CC(CC3OCCO3)c3ccc(F)cc3)CC2)C1=O` (configuration not stated), the TGI is 1.95 µM in experiment [1]; over 100 µM in [2]; 5.69 µM in experiment [3]; over 87.6 µM in experiment [4]; 9.54 µM in experiment [5]; 43.1 µM in experiment [6]. The TGI is over 44.2 µM in experiment [7]; 33 µM in experiment [8]; over 92.7 µM in [9]; over 100 µM in experiment [10]; 40.5 µM in experiment [11]; over 40.4 µM in [12].
